Data: publication PMC4103815, “P-Glycoprotein Mediated Efflux Limits the Transport of the Novel Anti-Parkinson's Disease Candidate Drug FLZ across the Physiological and PD Pathological In Vitro BBB Models” (PLoS ONE, 2014)

Legend:
[1] = test system: physiological in vitro BBB model; assay: Sodium fluorescein permeability, physiological co-culture BBB model; format: in vitro ADME, rat; conditions: co-culture model under normal conditions
Protocol: (§1) The flux of sodium fluorescein (NaF) across the BBB models was determined as previously described. Prior to transport studies, culture media from the top and bottom compartments were replaced with HBSS. 100 µg/ml Na-F (MW: 376 Da) was added to the upper inserts of the Transwell system. At 30, 60, 90 and 120 min, 50 µl samples were taken from the acceptor compartment and immediately replaced with fresh buffer. The concentrations of the fluorescein in samples from the upper to lower compartments were determined by fluorescence multiwell plate reader (excitation wavelength: 485 nm; emission wavelength: 535 nm). Based on the rate of influx of sodium fluorescein into the bottom compartment, permeability coefficients were calculated.

[2] = test system: PD pathological in vitro BBB model; assay: Sodium fluorescein permeability, PD pathological co-culture BBB model; format: in vitro ADME, rat; conditions: co-culture model under Parkinson's conditions
Protocol: as §1

normal rCMECs = assay: Cell viability by MTT, normal rCMECs; format: cell-based, rat; conditions: 24 h; FLZ 1 to 50 µM, zosuquidar 5 µM, FTC 10 µM
Protocol: (§2) To investigate the effects of FLZ on the growth of normal and PD rCMECs monolayers, a cell proliferation assay was performed. […] Therefore, in all following experiments, we used FLZ (1, 5 and 10 µM), zosuquidar (5 µM) and FTC (10 µM) as standard treatment.
(§3) Supplementary file pone.0102442.s001.tif: Figure S1 The cytotoxicity of FLZ (A) and inhibitors (B) in rat cerebral microvessel endothelial cells. rCMECs were exposed to the indicated concentration of FLZ (A) and transport inhibitors zosuquidar and FTC for 24 h. Each point represents the mean ± SD of three determinations. Each experiment was performed in three times. (TIF) Click here for additional data file.

PD rCMECs = assay: Cell viability by MTT, PD rCMECs; format: cell-based, rat; conditions: 24 h; FLZ 1 to 50 µM, zosuquidar 5 µM, FTC 10 µM
Protocol: as §2, §3

Compound | paracellular Papp of NaF [1] | paracellular Papp of NaF [2] | viability of normal rCMECs (MTT) (normal rCMECs) | viability of PD rCMECs (MTT) (PD rCMECs)
O=C([O-])c1ccccc1-c1c2ccc(=O)cc-2oc2cc([O-])ccc12.[Na+].[Na+] [NaF, sodium fluorescein] | 1.92±0.19 10^−6 cm/s | 2.18±0.26 10^−6 cm/s |  | 
O[C@@H](COc1cccc2ncccc12)CN1CCN([C@@H]2c3ccccc3[C@@H]3[C@H](c4ccccc42)C3(F)F)CC1 [zosuquidar] |  |  | did not effect | did not effect
COc1ccc2c3c([nH]c2c1)[C@H](C=C(C)C)N1C(=O)[C@@H]2CCCN2C(=O)[C@@H]1C3 [FTC, Fumitremorgin C] |  |  | did not effect | did not effect
